The values below come from US5254576A, “Diphenyl-heterocyclic-oxazole as platelet aggregation inhibitors” (Bristol-Myers Squibb Company, priority 1992, dated 1993).

In brackets after ≈: the same amount, converted by molar mass.

The test system of the first assay is human PRP vs ADP.
Assay: not given
Conditions: U.S. Pat. No. 4,460,598; Lautenschlager, et al., Drugs of the Future, 11, 26 (1986); cited from earlier work.
Consider `O=C(O)CCCCCCCOc1nc(-c2ccccc2)c(-c2ccccc2)n1-c1ccccc1` [Octimibate], for which the “IC50 (human PRP vs ADP)” value was 1 µg/mL (≈ 2.2 µM).

The next assay concerns platelet aggregation.
Assay: not given
Conditions: prior art (U.S. Pat. No. 4,460,598; EPO 0434034); cited from earlier work.
`O=C(O)CCCCCCCOc1nc(-c2ccccc2)c(-c2ccccc2)n1-c1ccccc1` [Octimibate]: the “inhibition of platelet aggregation, in words” value is reported as “broad spectrum inhibitor of platelet aggregation”.

Another assay relates to ADP-induced aggregation of human blood platelets. Briefly: cells. Conditions: Platelet, read-out: IC50 (human PRP vs ADP).
Regarding `c1ccc(-c2nc(-c3ncoc3-c3cccc(OCc4nnn[nH]4)c3)oc2-c2ccccc2)cc1` [Compound 12, 5-[3-[4-(4,5-Diphenyl-2-oxazolyl)-5-oxazolyl]-phenoxy]methyl-1H-tetrazole], the IC50 came out at 0.06 µg/mL (≈ 0.13 µM).

`COC(=O)COc1cccc(-c2ocnc2-c2nc(-c3ccccc3)c(-c3ccccc3)[nH]2)c1` [Compound 22]: the half-maximal inhibitory concentration (IC50) turned out to be 0.13 µg/mL (≈ 0.288 µM).

`COC(=O)COc1cccc(-c2ocnc2-c2nc(-c3ccccc3)c(-c3ccccc3)o2)c1` [Compound 6]: the IC50 amounted to 0.012 µg/mL (≈ 0.0265 µM).

Consider `O=C(O)COc1cccc(-c2ocnc2-c2nc(-c3ccsc3)c(-c3ccsc3)o2)c1` [Compound 20], for which the half-inhibitory concentration (IC50) amounted to 0.21 µg/mL (≈ 0.466 µM).

`O=C(O)COc1cccc(-c2ocnc2-c2nc(-c3ccccc3)c(-c3ccccc3)s2)c1` [Compound 32]: the IC50 worked out at 0.096 µg/mL (≈ 0.211 µM).

Regarding `O=C(O)COc1cccc(-c2ocnc2-c2nc(-c3ccccc3)c(-c3ccccc3)[nH]2)c1` [Compound 23], the IC50 was 0.012 µg/mL (≈ 0.0274 µM).

With `COC(=O)COc1cccc(-c2ocnc2-c2nnc(-c3ccccc3)n2-c2ccccc2)c1` [Compound 16, Methyl [3-[4-(4,5-diphenyl-4H-1,2,4-triazol-3-yl)-5-oxazolyl]phenoxy]acetate], the concentration for half-maximal inhibition (IC50) is greater than 32 µg/mL.

For `COC(=O)COc1cccc(-c2ocnc2-c2nc(-c3ccccc3)c(-c3ccccc3)s2)c1` [Compound 31], the IC50 turned out to be 0.26 µg/mL (≈ 0.555 µM).

With `COC(=O)COc1cccc(-c2ocnc2-c2nc(-c3ccsc3)c(-c3ccsc3)o2)c1` [Compound 19], the IC50 is 0.19 µg/mL (≈ 0.409 µM).

For the molecule `O=C(O)COc1cccc(-c2ocnc2-c2nnc(-c3ccccc3)n2-c2ccccc2)c1` [Compound 17], the concentration for half-maximal inhibition (IC50) was greater than 32 µg/mL.

As for `COCOc1cccc(-c2ocnc2-c2nc(-c3ccccc3)c(-c3ccccc3)o2)c1` [Compound 10], the IC50 was found to be 28 µg/mL (≈ 66 µM).

On to `O=C(O)COc1cccc(-c2ocnc2-c2nc(-c3ccccc3)c(-c3ccccc3)o2)c1` [Compound 5], for which the IC50 was 0.012 µg/mL (≈ 0.0274 µM).

One may read the IC50 as the concentration that inhibits the measured activity by half.
